Reference: patent US8440240B2, “Method for treating ocular demodex” (priority 2005, dated 2013)
Several values for one entry are separate records, joined by “and”; a condition that tells them apart may be missing. Equal entries are not always repeated.

Assays:
[1] = test system: Demodex folliculorum; assay: In vitro killing: survival time of live adult demodex from epilated lashes in test solutions; details: for killing effect on Demodex in words (relative to TTO): in vitro; for ST: survival time of demodex: 150 = still alive (no effect)
Protocol: TT shampoo was from Kato Sales, Inc. (Altamonte Springs, Fla., USA). TTO was diluted with mineral oil into different concentrations.
Under the microscope, if the epilated lash contained live demodex, different solutions were added to the coverslip edge. The movement of demodex body and legs was continuously observed for 150 minutes. The survival time (ST) (Table 2 below) was counted from the time when the solution was added to the time when the movement ceased (See FIG. 1) The average ST tested for a given solution in a number of mites was used to compare the in vitro killing effect. If demodex remained alive at the end of 150 minutes, this value was denoted as no effect. Because demodex in an earlier life stage was more vulnerable, we only tested adult demodex that had 4 pairs of well developed legs and stumpy body. Because demodex buried in cylindrical dandruff (CD) might preclude the killing effect, we only tested demodex of which the whole body was fully exposed to the test solution.

[2] = test system: Demodex folliculorum; details: Norn 1970; cited from earlier work

**Q.** What does the source list for `C=C(C)[C@H]1CC=C(C)C(=O)C1` [(+)-Carvone]?
**A.** Killing effect on Demodex (Time in minutes), Average ([1]; 25%): 22.7 min; Killing effect on Demodex (Time in minutes), single mite ([1]; 25%): 25 min and 20 min and 23 min; Killing effect on Demodex (Time in minutes), Average ([1]; 50%): 11.6 min; Killing effect on Demodex (Time in minutes), single mite ([1]; 50%): 13 min and 8 min and 10 min and 11 min and 16 min; Killing effect on Demodex (Time in minutes), Average ([1]; 100%): 4.2 min; Killing effect on Demodex (Time in minutes), single mite ([1]; 100%): 4 min and 5 min and 3 min; killing effect on Demodex in words (relative to TTO) [1]: as effective as TTO

**Q.** With `C=C(C)[C@H]1CC=C(C)CC1` [(+)-Limonene, (R)-(+)-Limonene] as the compound, how does the “Killing effect on Demodex (Time in minutes), Average” value (“Killing effect on Demodex … Average” below) ([1]; 97%) read?
**A.** 66.8 min

**Q.** What about the “killing effect on Demodex in words (relative to TTO)” value (shortened to “killing effect … (relative to TTO)”) [1] of the same compound?
**A.** not as effective as TTO

**Q.** What does the source list for `CCO` [Alc, alcohol, reference compound]?
**A.** time to kill demodex [2]: within several minutes; ST: survival time of demodex ([1]; 75% solution): 150 min; ST: survival time of demodex ([1]; 100% solution, adult mites, observed 150 min, mean±S.D.): 3.9 ± 1.2 min

**Q.** With `CC12CCC(CC1)C(C)(C)O2` [Eucalyptol] as the compound, how does the “Killing effect on Demodex … Average” value ([1]; concentration not given) read?
**A.** 36.8 min

**Q.** What about the “Killing effect on Demodex (Time in minutes), single mite” value (shortened to “Killing effect on Demodex … single mite”) ([1]; concentration not given) of the same compound?
**A.** 30 min and 35 min and 40 min and 42 min

**Q.** What about the “killing effect … (relative to TTO)” value [1] of the same compound?
**A.** not as effective as TTO

**Q.** Which “Killing effect on Demodex … Average” value ([1]; 2%, 150 = no effect) does the source give for `CC[C@@H]1C(=O)OC[C@@H]1Cc1cncn1C` [Pilo, pilocarpine, reference compound] here?
**A.** 150 min

**Q.** And the “Killing effect on Demodex … single mite” value ([1]; 2%, 150 = no effect)?
**A.** 150 min

**Q.** And the “ST: survival time of demodex” value ([1]; 4% solution)?
**A.** 150 min

**Q.** What about the “ST: survival time of demodex” value ([1]; 4% solution, listed as Pilocarpine) of the same compound?
**A.** > 150 min

**Q.** What about the “Killing effect on Demodex … Average” value ([1]; 4%, 150 = no effect) of the same compound?
**A.** 150 min

**Q.** And the “Killing effect on Demodex … single mite” value ([1]; 4%, 150 = no effect)?
**A.** 150 min

**Q.** For `CC1=CCC(O)(C(C)C)CC1` (centres unmarked) [Terpinen-4-ol], which “killing effect … (relative to TTO)” value [1] is on record?
**A.** active ingredient

**Q.** With `c1ccccc1` [benzene] as the compound, how does the “time to kill demodex” value [2] read?
**A.** within several minutes

**Q.** With `CCOCC` [ether] as the compound, how does the “time to kill demodex” value [2] read?
**A.** within several minutes

**Q.** Which “ST: survival time of demodex” value ([1]; 10% solution, observed 150 min) does the source give for “povidone iodine [PI, reference compound]” here?
**A.** 150 min

**Q.** Which “time to kill demodex” value [2] does the source give for xylol here?
**A.** within several minutes
